# Experimental data taken from patent US9422293B2 (priority 2006, dated 2016).
# Structures can show the parent of a compound that is named as a salt.
# Biological target: rat TRPV1 (Rattus norvegicus (Rat), UniProt O35433)
# Conditions: read-out: Rat IC50
# Chain of rat TRPV1 (O35433 whole entry): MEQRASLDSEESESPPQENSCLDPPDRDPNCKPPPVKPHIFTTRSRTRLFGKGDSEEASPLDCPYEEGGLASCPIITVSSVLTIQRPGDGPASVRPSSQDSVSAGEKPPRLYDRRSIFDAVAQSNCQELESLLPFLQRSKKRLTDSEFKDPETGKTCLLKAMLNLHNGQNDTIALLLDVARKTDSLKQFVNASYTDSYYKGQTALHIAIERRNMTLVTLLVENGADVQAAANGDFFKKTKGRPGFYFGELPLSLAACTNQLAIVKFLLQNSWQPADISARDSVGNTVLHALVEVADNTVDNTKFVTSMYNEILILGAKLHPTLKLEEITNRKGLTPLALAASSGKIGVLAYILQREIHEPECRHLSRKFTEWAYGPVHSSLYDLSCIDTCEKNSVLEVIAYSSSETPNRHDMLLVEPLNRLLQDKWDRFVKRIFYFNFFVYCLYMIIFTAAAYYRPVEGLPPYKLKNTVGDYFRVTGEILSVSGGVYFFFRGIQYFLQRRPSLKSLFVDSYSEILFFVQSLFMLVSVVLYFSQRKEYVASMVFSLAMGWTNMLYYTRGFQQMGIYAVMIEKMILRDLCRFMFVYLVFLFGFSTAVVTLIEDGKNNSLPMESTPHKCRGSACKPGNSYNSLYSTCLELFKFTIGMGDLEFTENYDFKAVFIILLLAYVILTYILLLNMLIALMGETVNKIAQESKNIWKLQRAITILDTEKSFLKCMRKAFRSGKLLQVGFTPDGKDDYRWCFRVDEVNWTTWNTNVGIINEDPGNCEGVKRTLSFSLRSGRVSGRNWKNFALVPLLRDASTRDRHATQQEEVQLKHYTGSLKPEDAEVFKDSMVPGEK
row,SMILES,IC50 [µM]
1,"Cc1nc2ccccc2nc1N1CCc2ncnc(Nc3ccc(C(C)(C)C)cc3)c2CC1 [Example 32, (4-tert-Butyl-phenyl)-[7-(3-methyl-quinoxalin-2-yl)-6,7,8,9-tetrahydro-5H-pyrimido[4,5-d]azepin-4-yl]-amine]",0.013
2,"CN(C)S(=O)(=O)c1ccc(Nc2nc(N3CCOCC3)nc3c2CCN(c2ncccc2C(F)(F)F)CC3)cc1 [Example 379, N,N-Dimethyl-4-({2-morpholin-4-yl-7-[3-(trifluoromethyl)pyridin-2-yl]-6,7,8,9-tetrahydro-5H-pyrimido[4,5-d]azepin-4-yl}amino)benzenesulfonamide]",0.07
3,"CC(C)c1nc2c(c(Nc3ccc(C(C)(C)C)c([N+](=O)[O-])c3)n1)CCN(c1ncccc1C(F)(F)F)CC2 [Example 143, N-[4-(1,1-Dimethylethyl)-3-nitrophenyl]-2-(1-methylethyl)-7-[3-(trifluoromethyl)pyridin-2-yl]-6,7,8,9-tetrahydro-5H-pyrimido[4,5-d]azepin-4-amine]",0.13
4,"CC(C)c1nc2c(c(NCc3ccc(C(F)(F)F)nc3)n1)CCN(c1ncccc1C(F)(F)F)CC2 [Example 116, 2-(1-Methylethyl)-7-[3-(trifluoromethyl)pyridin-2-yl]-N-{[6-(trifluoromethyl)pyridin-3-yl]methyl}-6,7,8,9-tetrahydro-5H-pyrimido[4,5-d]azepin-4-amine]",7.03
5,"CC(C)c1nc2c(c(NCCc3ccc(F)cc3)n1)CCN(c1ncccc1C(F)(F)F)CC2 [Example 12, [2-(4-Fluoro-phenyl)-ethyl]-[2-isopropyl-7-(3-trifluoromethyl-pyridin-2-yl)-6,7,8,9-tetrahydro-5H-pyrimido[4,5-d]azepin-4-yl]-amine]",0.95
6,"COCc1nc2c(c(Nc3ccc(C(F)(F)F)nc3)n1)CCN(c1ncccc1C(F)(F)F)CC2 [Example 346, 2-[(Methyloxy)methyl]-7-[3-(trifluoromethyl)pyridin-2-yl]-N-[6-(trifluoromethyl)pyridin-3-yl]-6,7,8,9-tetrahydro-5H-pyrimido[4,5-d]azepin-4-amine trifluoroacetic acid salt]",> 6.67
7,"Cc1cc(C(F)(F)F)ccc1Nc1nc(OC2CCCCC2)nc2c1CCN(c1ncccc1C(F)(F)F)CC2 [Example 326, 2-(Cyclohexyloxy)-N-[2-methyl-4-(trifluoromethyl)phenyl]-7-[3-(trifluoromethyl)pyridin-2-yl]-6,7,8,9-tetrahydro-5H-pyrimido[4,5-d]azepin-4-amine]",0.6
8,"CC(C)c1nc2c(c(Nc3ccc4c(c3)N(C)CCC4)n1)CCN(c1ncccc1C(F)(F)F)CC2 [Example 161, [2-Isopropyl-7-(3-trifluoromethyl-pyridin-2-yl)-6,7,8,9-tetrahydro-5H-pyrimido[4,5-d]azepin-4-yl]-(1-methyl-1,2,3,4-tetrahydro-quinolin-7-yl)-amine]",0.13
9,"Nc1nc2c(c(Nc3ccc(C(F)(F)F)cc3)n1)CCN(c1ncccc1C(F)(F)F)CC2 [Example 51, N^4-(4-Trifluoromethyl-phenyl)-7-(3-trifluoromethyl-pyridin-2-yl)-6,7,8,9-tetrahydro-5H-pyrimido[4,5-d]azepine-2,4-diamine]",1.2
10,"FC(F)(F)c1ccc(Nc2nc(OC3CCCCC3)nc3c2CCN(c2ncccc2C(F)(F)F)CC3)cc1 [Example 338, 2-(Cyclohexyloxy)-N-[4-(trifluoromethyl)phenyl]-7-[3-(trifluoromethyl)pyridin-2-yl]-6,7,8,9-tetrahydro-5H-pyrimido[4,5-d]azepin-4-amine]",0.4
11,"OCC1CCCCN1c1nc2c(c(Nc3ccc(C(F)(F)F)cc3)n1)CCN(c1ncccc1C(F)(F)F)CC2 (centres unmarked) [Example 259, [1-(4-{[4-(Trifluoromethyl)phenyl]amino}-7-[3-(trifluoromethyl)pyridin-2-yl]-6,7,8,9-tetrahydro-5H-pyrimido[4,5-d]azepin-2-yl)piperidin-2-yl]methanol]",0.09
12,"O=S(=O)(c1ccc(Nc2nc(OC3CCCC3)nc3c2CCN(c2ncccc2C(F)(F)F)CC3)cc1)N1CCCC1 [Example 333, 2-(Cyclopentyloxy)-N-[4-(pyrrolidin-1-ylsulfonyl)phenyl]-7-[3-(trifluoromethyl)pyridin-2-yl]-6,7,8,9-tetrahydro-5H-pyrimido[4,5-d]azepin-4-amine]",0.04
13,"CN1CCN(c2nc3c(c(Nc4ccc(C(F)(F)F)c(Cl)c4)n2)CCN(c2ncccc2C(F)(F)F)CC3)CC1 [Example 221, N-[3-Chloro-4-(trifluoromethyl)phenyl]-2-(4-methylpiperazin-1-yl)-7-[3-(trifluoromethyl)pyridin-2-yl]-6,7,8,9-tetrahydro-5H-pyrimido[4,5-d]azepin-4-amine]",0.72
14,"N#Cc1cccnc1N1CCc2ncnc(Nc3ccc(C(F)(F)F)cc3)c2CC1 [Example 293, 2-(4-{[4-(Trifluoromethyl)phenyl]amino}-5,6,8,9-tetrahydro-7H-pyrimido[4,5-d]azepin-7-yl)pyridine-3-carbonitrile]",3.49
15,"CC(C)c1nc2c(c(Nc3ccc(N4CCCC4)cc3)n1)CCN(c1ncccc1C(F)(F)F)CC2 [Example 377, 2-(1-Methylethyl)-N-(4-pyrrolidin-1-ylphenyl)-7-[3-(trifluoromethyl)pyridin-2-yl]-6,7,8,9-tetrahydro-5H-pyrimido[4,5-d]azepin-4-amine]",1.41
16,"CC(O)CSc1nc2c(c(Nc3ccc(S(=O)(=O)C(F)(F)F)cc3)n1)CCN(c1ncccc1C(F)(F)F)CC2 (centres unmarked) [Example 362, 1-({7-[3-(Trifluoromethyl)pyridin-2-yl]-4-({4-[(trifluoromethyl)sulfonyl]phenyl}amino)-6,7,8,9-tetrahydro-5H-pyrimido[4,5-d]azepin-2-yl}sulfanyl)propan-2-ol]",0.19
17,"FC(F)(F)c1ccc(Nc2nc(-c3ccncc3)nc3c2CCN(c2ncccc2C(F)(F)F)CC3)cc1Cl [Example 169, N-[3-Chloro-4-(trifluoromethyl)phenyl]-2-pyridin-4-yl-7-[3-(trifluoromethyl)pyridin-2-yl]-6,7,8,9-tetrahydro-5H-pyrimido[4,5-d]azepin-4-amine]",1.01
18,"CC(=O)c1ccc(Nc2nc(C(C)C)nc3c2CCN(c2ncccc2C(F)(F)F)CC3)cc1 [Example 96, 1-{4-[2-Isopropyl-7-(3-trifluoromethyl-pyridin-2-yl)-6,7,8,9-tetrahydro-5H-pyrimido[4,5-d]azepin-4-ylamino]-phenyl}-ethanone]",0.34
19,"CS(=O)(=O)c1nc2c(c(Nc3ccc(C(F)(F)F)cc3)n1)CCN(c1ncccc1C(F)(F)F)CC2 [Example 53, [2-Methanesulfonyl-7-(3-trifluoromethyl-pyridin-2-yl)-6,7,8,9-tetrahydro-5H-pyrimido[4,5-d]azepin-4-yl]-(4-trifluoromethyl-phenyl)-amine]",> 6.7
20,"FC(F)(F)c1ccc(Nc2ncnc3c2CCN(c2ncccc2Cl)CC3)cc1 [Example 30, [7-(3-Chloro-pyridin-2-yl)-6,7,8,9-tetrahydro-5H-pyrimido[4,5-d]azepin-4-yl]-(4-trifluoromethyl-phenyl)-amine]",1.3
21,"CC(C)c1nc2c(c(Nc3ccc(C(C)(C)C)cc3)n1)CCN(c1ncc(N)cc1C(F)(F)F)CC2 [Example 201, 7-[5-Amino-3-(trifluoromethyl)pyridin-2-yl]-N-[4-(1,1-dimethylethyl)phenyl]-2-(1-methylethyl)-6,7,8,9-tetrahydro-5H-pyrimido[4,5-d]azepin-4-amine]",0.32
22,"CC(C)c1nc2c(c(Nc3ccc(C(F)(F)F)c(F)c3)n1)CCN(c1ncccc1C(F)(F)F)CC2 [Example 140, N-[3-Fluoro-4-(trifluoromethyl)phenyl]-2-(1-methylethyl)-7-[3-(trifluoromethyl)pyridin-2-yl]-6,7,8,9-tetrahydro-5H-pyrimido[4,5-d]azepin-4-amine]",0.19
23,"FC(F)(F)c1ccc(Nc2ncnc3c2CCN(c2cnc4ccccc4n2)CC3)cc1 [Example 29, (7-Quinoxalin-2-yl-6,7,8,9-tetrahydro-5H-pyrimido[4,5-d]azepin-4-yl)-(4-trifluoromethyl-phenyl)-amine]",0.34
24,"CC(C)c1nc2c(c(Nc3ccc(C(F)(F)F)cc3)n1)CCN(c1ncc(C(=O)O)cc1Cl)CC2 [Example 288, 5-Chloro-6-[2-(1-methylethyl)-4-{[4-(trifluoromethyl)phenyl]amino}-5,6,8,9-tetrahydro-7H-pyrimido[4,5-d]azepin-7-yl]pyridine-3-carboxylic acid trifluoroacetic acid salt]",2.02
25,"O=S(=O)(c1ccc(Nc2nc(OC3CCOCC3)nc3c2CCN(c2ncccc2C(F)(F)F)CC3)cc1)N1CCCC1 [Example 335, N-[4-(Pyrrolidin-1-ylsulfonyl)phenyl]-2-(tetrahydro-2H-pyran-4-yloxy)-7-[3-(trifluoromethyl)pyridin-2-yl]-6,7,8,9-tetrahydro-5H-pyrimido[4,5-d]azepin-4-amine]",0.15
26,"CN(c1nc2c(c(Nc3ccc(C(F)(F)F)nc3)n1)CCN(c1ncccc1C(F)(F)F)CC2)C1CCCCC1 [Example 275, N^2-Cyclohexyl-N^2-methyl-7-[3-(trifluoromethyl)pyridin-2-yl]-N^4-[6-(trifluoromethyl)pyridin-3-yl]-6,7,8,9-tetrahydro-5H-pyrimido[4,5-d]azepine-2,4-diamine]",0.19
27,"COCc1nc2c(c(Nc3ccc(C(C)(C)C)cc3)n1)CCN(c1ncccc1C(F)(F)F)CC2 [Example 67B, (4-tert-Butyl-phenyl)-[2-methoxymethyl-7-(3-trifluoromethyl-pyridin-2-yl)-6,7,8,9-tetrahydro-5H-pyrimido[4,5-d]azepin-4-yl]-amine trifluoroacetic acid salt]",0.034
28,"CC(C)(C)c1ccc(Nc2nc(N[C@@H]3CCOC3)nc3c2CCN(c2ncccc2C(F)(F)F)CC3)cc1 [Example 264, N^4-[4-(1,1-Dimethylethyl)phenyl]-N^2-[(3R)-tetrahydrofuran-3-yl]-7-[3-(trifluoromethyl)pyridin-2-yl]-6,7,8,9-tetrahydro-5H-pyrimido[4,5-d]azepine-2,4-diamine]",1.3

# Same assay, conditions: read-out: Rat IC50; hydrochloride salt
row,SMILES,IC50 [µM]
1,"FC(F)(F)c1ccc(Nc2nc(C3CC3)nc3c2CCN(c2ncccc2C(F)(F)F)CC3)cc1 [Example 5A, [2-Cyclopropyl-7-(3-trifluoromethyl-pyridin-2-yl)-6,7,8,9-tetrahydro-5H-pyrimido[4,5-d]azepin-4-yl]-(4-trifluoromethyl-phenyl)-amine hydrochloride salt]",0.19
